In ChEMBL document CHEMBL5143526, “Acridine-O6-benzylguanine hybrids: Synthesis, DNA binding, MGMT inhibition and antiproliferative activity” (Eur J Med Chem, 2022):
pEC50, pKd: −log10 of the molar value. Active and inactive are the calls of the source. The rule behind the calls is not given here.

Assays:
T98G [1] = test: Antiproliferative activity against human T98G cells assessed as cell growth inhibition incubated for 96 hrs by CellTiter-Glo luminescent cell viability assay; format: functional
T98G [2] = test: Antiproliferative activity against human T98G cells assessed as cell viability at 94 uM incubated for 96 hrs by CellTiter-Glo luminescent cell viability assay relative to control; format: functional; details: read-out: Activity
T98G [3] = test: Antiproliferative activity against human T98G cells assessed as cell viability at 188 uM incubated for 96 hrs by CellTiter-Glo luminescent cell viability assay relative to control; format: functional; details: read-out: Activity
T98G [4] = test: Antiproliferative activity against human T98G cells assessed as cell viability at 375 uM incubated for 96 hrs by CellTiter-Glo luminescent cell viability assay relative to control; format: functional; details: read-out: Activity
T98G [5] = test: Additive antiproliferative activity against human T98G cells assessed as reduction in cell viability at GI50 pretreated for 2 hrs followed by TMZ addition at 188 uM and measured after 94 hrs by CellTiter-Glo luminescent cell viability assay; format: functional, cell-based
T98G [6] = test: Additive antiproliferative activity against human T98G cells assessed as reduction in cell viability at GI50 pretreated for 2 hrs followed by TMZ addition at 375 uM and measured after 94 hrs by CellTiter-Glo luminescent cell viability assay; format: functional, cell-based; details: time 96.0 hrs
T98G [7] = test: Additive antiproliferative activity against human T98G cells assessed as reduction in cell viability at 25 uM pretreated for 2 hrs followed by TMZ addition at 94 uM and measured after 94 hrs by CellTiter-Glo luminescent cell viability assay; format: functional, cell-based; details: time 96.0 hrs
T98G [8] = test: Antiproliferative activity against human T98G cells assessed as cell viability at 25 uM incubated for 96 hrs by CellTiter-Glo luminescent cell viability assay relative to control; format: functional; details: read-out: Activity
T98G [9] = test: Synergistic antiproliferative activity against human T98G cells assessed as reduction in cell viability at 25 uM pretreated for 2 hrs followed by TMZ addition at 94 uM and measured after 94 hrs by CellTiter-Glo luminescent cell viability assay; format: functional, cell-based; details: time 96.0 hrs
T98G [10] = test: Additive antiproliferative activity against human T98G cells assessed as reduction in cell viability at 25 uM pretreated for 2 hrs followed by TMZ addition at 188 uM and measured after 94 hrs by CellTiter-Glo luminescent cell viability assay; format: functional, cell-based; details: time 96.0 hrs
T98G [11] = test: Additive antiproliferative activity against human T98G cells assessed as reduction in cell viability at 25 uM pretreated for 2 hrs followed by TMZ addition at 375 uM and measured after 94 hrs by CellTiter-Glo luminescent cell viability assay; format: functional, cell-based; details: time 96.0 hrs
Calf thymus DNA [12] = test: Binding affinity to calf thymus DNA assessed as ligand-induced thermal stabilization of DNA duplex by measuring change in melting temperature at 6.25 uM by thermal denaturation analysis; format: nucleic-acid assay; details: Bos taurus
T98G [13] = test: Antagonistic antiproliferative activity against human T98G cells assessed as reduction in cell viability at GI50 pretreated for 2 hrs followed by TMZ addition at 94 uM and measured after 94 hrs by CellTiter-Glo luminescent cell viability assay; format: functional, cell-based; details: time 96.0 hrs
T98G [14] = test: Antagonistic antiproliferative activity against human T98G cells assessed as reduction in cell viability at GI50 pretreated for 2 hrs followed by TMZ addition at 188 uM and measured after 94 hrs by CellTiter-Glo luminescent cell viability assay; format: functional, cell-based; details: time 96.0 hrs
T98G [15] = test: Antagonistic antiproliferative activity against human T98G cells assessed as reduction in cell viability at GI50 pretreated for 2 hrs followed by TMZ addition at 375 uM and measured after 94 hrs by CellTiter-Glo luminescent cell viability assay; format: functional, cell-based; details: time 96.0 hrs
[16] = Thermal stability of compound in aqueous solution at 10 uM at 20 to 75 degreeC by UV-vis absorption spectroscopy; format: physicochemical; details: buffer
[17] = Fluorescence property of compound in MeCN assessed as quantum yield; format: physicochemical
[18] = Fluorescence property of compound in THF assessed as quantum yield; format: physicochemical
[19] = Fluorescence property of compound in MeOH assessed as quantum yield; format: physicochemical
[20] = Fluorescence property of compound in aqueous solution assessed as quantum yield; format: physicochemical; details: buffer
Calf thymus DNA [21] = test: Binding affinity to calf thymus DNA assessed as intercalation by measuring dissociation constant at 20 uM measured after 5 mins by UV-Vis spectrophotometric titration analysis; format: nucleic-acid assay, Bos taurus
T98G [22] = test: Synergistic antiproliferative activity against human T98G cells assessed as reduction in cell viability at GI50 pretreated for 2 hrs followed by TMZ addition at 94 uM and measured after 94 hrs by CellTiter-Glo luminescent cell viability assay; format: functional, cell-based; details: time 96.0 hrs
T98G [23] = test: Synergistic antiproliferative activity against human T98G cells assessed as reduction in cell viability at GI50 pretreated for 2 hrs followed by TMZ addition at 375 uM and measured after 94 hrs by CellTiter-Glo luminescent cell viability assay; format: functional, cell-based; details: time 96.0 hrs
Calf thymus DNA [24] = test: Displacement of ethidium bromide from calf thymus DNA incubated for 30 mins by fluorescence microplate reader assay; format: nucleic-acid assay, Bos taurus
Calf thymus DNA [25] = test: Binding affinity to calf thymus DNA assessed as ligand induced positive CD band at 50 uM by Circular dichroism spectroscopy analysis; format: nucleic-acid assay; details: Bos taurus
[26] = test system: Panel NCI-60 (60 carcinoma cell lines); test: Antiproliferative activity against human Panel NCI-60 (60 carcinoma cell lines) assessed as cell growth inhibition incubated for 48 hrs; format: functional
T98G [27] = test: Antagonistic antiproliferative activity against human T98G cells assessed as reduction in cell viability at 25 uM pretreated for 2 hrs followed by TMZ addition at 375 uM and measured after 94 hrs by CellTiter-Glo luminescent cell viability assay; format: functional, cell-based; details: time 96.0 hrs
[28] = Drug localization in cytosolic region of human T98G cells at 1.1 uM measured after 96 hrs by confocal microscope based live cell imaging analysis; format: ADME, subcellular; details: cytosol
[29] = Drug localization in perinuclear region of nuclear membrane of human T98G cells assessed as appearance of z-stacked series at 1.1 uM measured after 96 hrs by confocal microscope based live cell imaging analysis; format: ADME, cell membranes
T98G [30] = test: Induction of apoptosis in human T98G cells assessed as increase in early apoptotic cells at 1.1 uM measured after 96 hrs by Annexin V-FITC/PI staining based flow cytometry analysis relative to control; format: functional
T98G [31] = test: Induction of apoptosis in human T98G cells assessed as increase in early apoptotic cells at 1.1 uM pretreated for 2 hrs followed by TMZ addition and measured after 96 hrs by Annexin V-FITC/PI staining based flow cytometry analysis relative to control; format: functional; details: time 98 hrs
HT-29 = test: Growth inhibition of human HT-29 cells measured after 24 hrs; format: functional
T98G [32] = test: Induction of DNA damage in human T98G cells assessed as increase in gammaH2AX foci number and size at 92 uM pretreated for 2 hrs followed by TMZ addition and measured after 94 hrs by DAPI staining based immunofluorescence assay; format: functional, cell-based; details: time 96.0 hrs
T98G [33] = test: Induction of apoptosis in human T98G cells assessed as increase in early apoptotic cells at 92 uM pretreated for 2 hrs followed by TMZ addition and measured after 96 hrs by Annexin V-FITC/PI staining based flow cytometry analysis (reference value: 2 %); format: functional; details: time 98 hrs

Row | SMILES | GI50 (T98G [1]) [µM] | Activity (T98G [5]) | ΔTm (Calf thymus DNA [12]) [°C] | Stability [16] | Activity [17] | Activity [18] | Activity [19] | Activity [20] | pKd (Calf thymus DNA [21]) | further results
1 | Cn1nnc2c(C(N)=O)ncn2c1=O [TEMOZOLOMIDE] | 375 | – | – | – | – | – | – | – | – | viability at 94 µM (T98G [2]): 100%; viability at 188 µM (T98G [3]): 63%; viability at 375 µM (T98G [4]): 50%
2 | COc1ccc2nc3cc(Cl)ccc3c(NCCCCn3cnc4c(=O)[nH]c(N)nc43)c2c1 | > 25 | Active | – | – | – | – | – | – | – | Activity (T98G [6]): Active
3 | COc1ccc2nc3cc(Cl)ccc3c(NCCCCn3cnc4c(Oc5ccccc5)nc(N)nc43)c2c1 | 0.8 | Active | – | – | – | – | – | – | – | Activity (T98G [7]): Active; Activity (T98G [6]): Active
4 | NCCCCn1cnc2c(OCc3ccccc3)nc(N)nc21 | > 25 | – | – | – | – | – | – | – | – | viability at 25 µM (T98G [8]): ≥ 70%; Activity (T98G [9]): Active; Activity (T98G [10]): Active; Activity (T98G [11]): Active
5 | COc1ccc2nc3cc(Cl)ccc3c(NCCCCCCCCn3cnc4c(OCc5ccccc5)nc(N)nc43)c2c1 | 14.5 | – | 0.7 | Stable | 0.09 | 0.08 | 0.05 | 0.05 | – | Activity (T98G [13]): Active; Activity (T98G [14]): Active; Activity (T98G [15]): Active
6 | COc1ccc2nc3cc(Cl)ccc3c(NCCOCCOCC(=O)NCc3cccc(COc4nc(N)nc5[nH]cnc45)c3)c2c1 | 25 | – | -0.7 | Stable | 0.05 | 0.06 | 0.06 | 0.01 | 4.63 | Activity (T98G [7]): Active; Activity (T98G [14]): Active; Activity (T98G [15]): Active
7 | COc1ccc2nc3cc(Cl)ccc3c(NCCOCCOCCn3cnc4c(OCc5ccccc5)nc(N)nc43)c2c1 | 2.1 | Active | -1.4 | Stable | 0.09 | 0.09 | 0.06 | < 0.01 | 4.87 | Activity (T98G [22]): Active; Activity (T98G [23]): Active
8 | COc1ccc2nc3cc(Cl)ccc3c(N)c2c1 | 0.6 | Active | 8.5 | – | 0.22 | 0.22 | 0.42 | 0.36 | 4.79 | pEC50 (Calf thymus DNA [24]): 5.10; Activity (Calf thymus DNA [25]): Active; GI50 [26]: 1 µM; Activity (T98G [22]): Active
9 | Nc1nc(OCc2ccccc2)c2ncn(CCCCN3C(=O)c4ccccc4C3=O)c2n1 | > 25 | – | – | – | – | – | – | – | – | viability at 25 µM (T98G [8]): ≥ 70%; Activity (T98G [9]): Active; Activity (T98G [10]): Active; Activity (T98G [27]): Active
10 | COc1ccc2nc3cc(Cl)ccc3c(NCCCCn3cnc4c(OCc5ccccc5)nc(N)nc43)c2c1 | 1.1 | Active | 0.6 | Stable | 0.07 | 0.09 | 0.06 | 0.01 | 4.72 | Drug uptake [28]: Active; Drug uptake [29]: Active; Activity (T98G [30]): 10%; Activity (T98G [31]): 11%; Activity (T98G [22]): Active; Activity (T98G [23]): Active
11 | COc1ccc2nc3cc(Cl)ccc3c(NCCCCCCCC(=O)NCc3cccc(COc4nc(N)nc5[nH]cnc45)c3)c2c1 | 19.4 | Active | 0.2 | Stable | 0.04 | 0.06 | 0.06 | 0.01 | 4.84 | Activity (T98G [7]): Active; Activity (T98G [15]): Active
12 | COc1ccc2nc3cc(Cl)ccc3c(NCCC(=O)NCc3cccc(COc4nc(N)nc5[nH]cnc45)c3)c2c1 | 15.6 | – | 1.5 | Stable | 0.06 | 0.12 | 0.07 | 0.08 | 4.79 | Activity (T98G [7]): Active; Activity (T98G [14]): Active; Activity (T98G [6]): Active
13 | NCc1cccc(COc2nc(N)nc3nc[nH]c23)c1 | > 25 | – | – | – | – | – | – | – | – | Activity (T98G [9]): Active; Activity (T98G [10]): Active; Activity (T98G [11]): Active
14 | Nc1nc(OCc2ccccc2)c2nc[nH]c2n1 [6-O-BENZYLGUANINE] | 91.8 | – | – | – | – | – | – | – | – | GI50 (HT-29): > 100 µM; Activity (T98G [32]): Active; Activity (T98G [33]): 8%; Activity (T98G [9]): Active; Activity (T98G [10]): Active; Activity (T98G [11]): Active
